From publication PMC11249977, “Investigating Penetration and Antimicrobial Activity of Vector-Bicycle Conjugates” (ACS Infectious Diseases, 2024)
Values after ≈ are worked out from the molar mass of the structure shown. Where two headings read alike, the source gives them in different places. Non-standard residues stand in square brackets, D forms with d. Residues, ends and D or L forms follow the SMILES beside them. Dap(N3) = [N-]=[N+]=NC[C@H](N)C(=O)O

System: E. coli (ATCC25922)
Type: cell-based, Escherichia coli
Details: for MIC (μg/ml), repeat 1 / MIC (μg/ml), repeat 2 / MIC (μg/ml), repeat 3: ATCC25922
Text: To determine how the cell killing ability of the vector-Bicycle variants changed when compared to the original vector, their antimicrobial activity was examined against a clinical strain of E. coli (ATCC25922) in cation-adjusted Mueller Hinton broth (CaMHB). The minimum inhibitory concentration (MIC) is defined as the lowest concentration of compound that completely prevents bacterial growth (Table 2). The unconjugated Bicycle molecule (AB1) and the original unconjugated vector (AV1) were used to make the MAP-Bicycle conjugate A1. All MAP-Bicycle conjugates contain the AB1 Bicycle molecule, linked to a variant of the original MAP (e.g., C2, S2, H6). The unconjugated MAP variants are labeled with the equivalent letter and number but with a “V” included in the name (e.g., CV2, SV2, HV6, see Table 1 for all vector variants).
Bacterial stock was streaked onto LB agar plates and incubated at 37 °C for 16–18 h. Using a sterile swab, single colonies were picked and resuspended in 2 mL of 0.9% saline solution, visually matching the turbidity of a 0.5 McFarland standard and having an OD600 nm of 0.18–0.25 (which corresponds to […]). The suspension was diluted 200-fold in cation-adjusted Mueller–-Hinton Broth (Ca-MHB), and 100 μL of the diluted culture was pipetted in wells of a 96-well plate containing 100 μL of a 2-factor dilution series of a compound per row of wells. The plate was incubated at 37 °C for 19 h. Afterward, the OD600 nm of each well was read using a Pherastar FSX plate reader. MIC values were determined, with the MIC being the lowest concentration of the compound at which growth was absent (i.e., OD600 nm was equivalent to no growth, as observed in carbenicillin control wells). This was also verified visually. […]

[1] = E. coli ATCC25922, CaMHB, 37 °C, 19 h, OD600 nm read, range of at least 3 biological repeats

CC(C)C[C@@H](NC(=O)[C@@H](CCCNC(=N)N)NC(=O)[C@@H](CCCNC(=N)N)NC(=O)[C@H](NC(=O)[C@@H](Cc1c[nH]c2ccccc12)NC(=O)[C@@H](CCCNC(=N)N)NC(=O)[C@@H](CO)NC(=O)[C@@H](Cc1c[nH]c2ccccc12)NC(=O)[C@@H](CCCNC(=N)N)NC(=O)[C@@H](N)CN=[N+]=[N-])C(C)C)C(=O)N[C@H](CO)C(=O)N[C@H](CCCCN)C(N)=O [AV1] (H-[Dap(N3)][dR][dW][dS][dR][dW][dV][dR][dR][dL][dS][dK]-NH2; N-terminus and C-terminus assumed) was tested, and the “MIC” value (ATCC25922, 19 h) was 19.5 µM and the “MIC” value [1] was 32 mg/L.

CC(C)C[C@@H](NC(=O)[C@@H](CCCNC(=N)N)NC(=O)[C@@H](CCCNC(=N)N)NC(=O)[C@H](NC(=O)[C@@H](Cc1c[nH]c2ccccc12)NC(=O)[C@@H](CCCNC(=N)N)NC(=O)[C@@H](CO)NC(=O)[C@@H](CCCNC(=N)N)NC(=O)[C@@H](CCCNC(=N)N)NC(=O)[C@@H](N)CN=[N+]=[N-])C(C)C)C(=O)N[C@H](CO)C(=O)N[C@H](CCCCN)C(N)=O [CV1] (H-[Dap(N3)][dR][dR][dS][dR][dW][dV][dR][dR][dL][dS][dK]-NH2; N-terminus and C-terminus assumed) was tested, and the “MIC (μg/ml), repeat 1” value was > 64 µg/mL, the “MIC (μg/ml), repeat 2” value was > 64 µg/mL and the “MIC (μg/ml), repeat 3” value was > 64 µg/mL. The “MIC” value (ATCC25922, 19 h) was >39.7 µM.

CC(C)C[C@@H](NC(=O)[C@@H](CCCNC(=N)N)NC(=O)[C@@H](CCCNC(=N)N)NC(=O)[C@H](NC(=O)[C@@H](Cc1c[nH]c2ccccc12)NC(=O)[C@@H](CCCNC(=N)N)NC(=O)[C@@H](CCCNC(=N)N)NC(=O)[C@@H](Cc1c[nH]c2ccccc12)NC(=O)[C@@H](CCCNC(=N)N)NC(=O)[C@@H](N)CN=[N+]=[N-])C(C)C)C(=O)N[C@H](CO)C(=O)N[C@H](CCCCN)C(N)=O [CV2] (H-[Dap(N3)][dR][dW][dR][dR][dW][dV][dR][dR][dL][dS][dK]-NH2; N-terminus and C-terminus assumed) was tested, and the “MIC” value (ATCC25922, 19 h) was 9.4 µM and the “MIC” value [1] was 16 mg/L.

With CC(C)C[C@@H](NC(=O)[C@@H](CCCNC(=N)N)NC(=O)[C@@H](CCCNC(=N)N)NC(=O)[C@H](NC(=O)[C@@H](CCCNC(=N)N)NC(=O)[C@@H](CCCNC(=N)N)NC(=O)[C@@H](CO)NC(=O)[C@@H](Cc1c[nH]c2ccccc12)NC(=O)[C@@H](CCCNC(=N)N)NC(=O)[C@@H](N)CN=[N+]=[N-])C(C)C)C(=O)N[C@H](CO)C(=O)N[C@H](CCCCN)C(N)=O [CV3] (H-[Dap(N3)][dR][dW][dS][dR][dR][dV][dR][dR][dL][dS][dK]-NH2; N-terminus and C-terminus assumed) the “MIC (μg/ml), repeat 1” value was > 64 µg/mL, the “MIC (μg/ml), repeat 2” value was > 64 µg/mL and the “MIC (μg/ml), repeat 3” value was > 64 µg/mL. For the same compound, the “MIC” value (ATCC25922, 19 h) was >39.7 µM.

CC(C)C[C@@H](NC(=O)[C@@H](CCCNC(=N)N)NC(=O)[C@@H](CCCNC(=N)N)NC(=O)[C@@H](CCCNC(=N)N)NC(=O)[C@@H](Cc1c[nH]c2ccccc12)NC(=O)[C@@H](CCCNC(=N)N)NC(=O)[C@@H](CO)NC(=O)[C@@H](Cc1c[nH]c2ccccc12)NC(=O)[C@@H](CCCNC(=N)N)NC(=O)[C@@H](N)CN=[N+]=[N-])C(=O)N[C@H](CO)C(=O)N[C@H](CCCCN)C(N)=O [CV4] (H-[Dap(N3)][dR][dW][dS][dR][dW][dR][dR][dR][dL][dS][dK]-NH2; N-terminus and C-terminus assumed) was tested, and the “MIC” value (ATCC25922, 19 h) was 18.8 µM and the “MIC” value [1] was 32 mg/L.

CC(C)[C@@H](NC(=O)[C@@H](Cc1c[nH]c2ccccc12)NC(=O)[C@@H](CCCNC(=N)N)NC(=O)[C@@H](CO)NC(=O)[C@@H](Cc1c[nH]c2ccccc12)NC(=O)[C@@H](CCCNC(=N)N)NC(=O)[C@@H](N)CN=[N+]=[N-])C(=O)N[C@H](CCCNC(=N)N)C(=O)N[C@H](CCCNC(=N)N)C(=O)N[C@H](CCCNC(=N)N)C(=O)N[C@H](CO)C(=O)N[C@H](CCCCN)C(N)=O [CV5] (H-[Dap(N3)][dR][dW][dS][dR][dW][dV][dR][dR][dR][dS][dK]-NH2; N-terminus and C-terminus assumed) was tested, and the “MIC” value (ATCC25922, 19 h) was 19 µM and the “MIC” value [1] was 32 mg/L.

In the case of CC(C)C[C@@H](NC(=O)[C@@H](CCCNC(=N)N)NC(=O)[C@@H](CCCNC(=N)N)NC(=O)[C@H](NC(=O)[C@@H](Cc1c[nH]c2ccccc12)NC(=O)[C@@H](CCCNC(=N)N)NC(=O)[C@@H](CCCNC(=N)N)NC(=O)[C@@H](CCCNC(=N)N)NC(=O)[C@@H](CCCNC(=N)N)NC(=O)[C@@H](N)CN=[N+]=[N-])C(C)C)C(=O)N[C@H](CO)C(=O)N[C@H](CCCCN)C(N)=O [CV8] (H-[Dap(N3)][dR][dR][dR][dR][dW][dV][dR][dR][dL][dS][dK]-NH2; N-terminus and C-terminus assumed), the “MIC (μg/ml), repeat 1” value is reported as 64 µg/mL (≈ 38.1 µM), the “MIC (μg/ml), repeat 2” value is reported as 64 µg/mL (≈ 38.1 µM) and the “MIC (μg/ml), repeat 3” value is reported as > 64 µg/mL.

With “CAzal - dR dW dS dR dW dV dR dR dL dR dK – CONH2 [CV6, standalone MAP vector variant of AV1, single arginine substitution]” the “MIC” value [1] was 16 mg/L.

With “CAzal - dR dW dS dR dW dV dR dR dR dR dK – CONH2 [CV12, standalone MAP vector variant of AV1, double arginine substitution]” the “MIC” value [1] was 16 mg/L.
